Test results reported in patent publication US8962608B2, “Cycloalkylnitrile pyrazole carboxamides as janus kinase inhibitors” (Merck Sharp & Dohme Corp., priority 2011, dated 2015).

Experiments:
[1] = biological target: JAK1 (recombinant purified GST-tagged catalytic domain) (Homo sapiens (Human), UniProt P23458);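 further: biochemical assay with HTRF read-out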
[2] = biological target: JAK2 (recombinant purified GST-tagged catalytic domain) (Homo sapiens (Human), UniProt O60674);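 further: biochemical JAK kinase assay with HTRF detection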
Sequence of JAK2 (recombinant purified GST-tagged catalytic domain) (O60674 849-1124): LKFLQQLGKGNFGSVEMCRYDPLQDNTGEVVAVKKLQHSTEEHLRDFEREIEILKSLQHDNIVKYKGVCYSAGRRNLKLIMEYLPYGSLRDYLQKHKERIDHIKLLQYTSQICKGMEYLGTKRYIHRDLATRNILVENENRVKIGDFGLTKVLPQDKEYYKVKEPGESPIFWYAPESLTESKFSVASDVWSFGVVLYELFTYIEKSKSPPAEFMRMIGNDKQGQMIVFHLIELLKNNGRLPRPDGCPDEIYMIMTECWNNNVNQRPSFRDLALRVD

Sequence of JAK1 (recombinant purified GST-tagged catalytic domain) (P23458 875-1153): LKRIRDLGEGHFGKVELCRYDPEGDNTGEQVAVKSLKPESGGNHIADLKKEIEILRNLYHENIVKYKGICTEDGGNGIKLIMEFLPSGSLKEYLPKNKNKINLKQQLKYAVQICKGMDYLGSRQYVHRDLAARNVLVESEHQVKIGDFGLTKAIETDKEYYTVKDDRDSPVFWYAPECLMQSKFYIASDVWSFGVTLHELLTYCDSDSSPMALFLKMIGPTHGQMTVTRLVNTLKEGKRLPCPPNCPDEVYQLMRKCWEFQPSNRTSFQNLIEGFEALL

| Structure (SMILES) | IC50 [1] [nM] | IC50 [2] [nM] |
| --- | --- | --- |
| N#C[C@H]1CCCCC1n1cc(C(N)=O)c(Nc2ccc(S(=O)(=O)C(F)F)c(CO)c2)n1 (mixture of isomers) [Example 17-64, 1-[(1S,2S and 1R,2R )-2-cyanocyclohexyl]-3-({4-[(difluoromethyl)sulfonyl]-3-(hydroxymethyl)phenyl}amino)-1H-pyrazole-4-carboxamide] | 2 | 14 |
| C[C@]1(C#N)CC[C@@H](F)C[C@@H]1n1cc(C(N)=O)c(Nc2ccc(F)cc2)n1 (mixture of isomers) [Example 19-1, 1-((1S,2S,5R and 1R,2R,5S)-2-cyano-5-fluoro-2-methylcyclohexyl)-3-((4-fluorophenyl)amino)-1H-pyrazole-4-carboxamide] | 3 | 8 |
| C[C@]1(C#N)CCCC[C@@H]1n1cc(C(N)=O)c(Nc2ccc(F)cc2)n1 (mixture of isomers) [Example 19-2, 1-((1S,2S and 1R,2R)-2-cyano-2-methylcyclohexyl)-3-((4-fluorophenyl)amino)-1H-pyrazole-4-carboxamide] | 4 | 11 |
| N#C[C@H]1CC(F)CC[C@@H]1n1cc(C(N)=O)c(Nc2ccccc2)n1 (mixture of isomers) [Example 22-1, 1-[(1S,2S and 1R,2R)-2-Cyano-4-fluorocyclohexyl]-3-(phenylamino)-1H-pyrazole-4-carboxamide] | 4 | 28 |
| CS(=O)(=O)N[C@H]1CC[C@H](n2cc(C(N)=O)c(Nc3ccc(F)cc3)n2)[C@@H](C#N)C1 (mixture of isomers) [Example 38-1, 1-{(1S,2S,4S and 1R,2R,4R)-2-cyano-4-[(methylsulfonyl)amino]cyclohexyl}-3-[(4-fluorophenyl)amino]-1H-pyrazole-4-carboxamide] | 2 | 14 |
| CS(=O)(=O)N[C@@H]1CC[C@H](n2cc(C(N)=O)c(Nc3ccc(F)cc3)n2)[C@@H](C#N)C1 (mixture of isomers) [Example 38-2, 1-{(1S,2S,4R and 1R,2R,4S)-2-cyano-4-[(methylsulfonyl)amino]cyclohexyl}-3-[(4-fluorophenyl)amino]-1H-pyrazole-4-carboxamide] | 0.9 | 12 |
| CC(C)(C)OC(=O)NCC1CC[C@H](C#N)[C@@H](n2cc(C(N)=O)c(Nc3ccc(F)cc3)n2)C1 (single isomer, unassigned) [Example 11-9, tert-butyl {[(1R or S 3S,4S) and (1S or R, 3R, 4R)]-3-{4-carbamoyl-3-[(4-fluorophenyl)amino]-1H-pyrazol-1-yl}-4-cyanocyclohexyl]methyl}carbamate] | 21 | 434 |
| CC(C)(C)OC(=O)NCC1CC[C@H](C#N)[C@@H](n2cc(C(N)=O)c(Nc3ccc(F)cc3)n2)C1 (single isomer, unassigned) [Example 11-10, tert-butyl {[(1S or R,3S,4S) and (1R or S,3R,4R)]-3-{4-carbamoyl-3-[(4-fluorophenyl)amino]-1H-pyrazol-1-yl}-4-cyanocyclohexyl]methyl}carbamate] | 110 | 1300 |
| N#C[C@H]1CCCC[C@@H]1n1cc(C(N)=O)c(Nc2cc(Cl)cc(Cl)c2)n1 (single isomer, unassigned) [Example 17-54, 1-[(1S,2S or 1R, 2R)-2-cyanocyclohexyl]-3-[(3,5-dichlorophenyl)amino]-1H-pyrazole-4-carboxamide] | 18 | 119 |
| N#C[C@H]1C[C@H](N2CCC2)CC[C@@H]1n1cc(C(N)=O)c(Nc2ccc(OC(F)F)nc2)n1 (single isomer, unassigned) [Example 28-2, 1-[(1S,2S,4R or 1R,2R,4S)-4-(azetidin-1-yl)-2-cyanocyclohexyl]-3-{[6-(difluoromethoxy)pyridin-3-yl]amino}-1H-pyrazole-4-carboxamide] | 4 | 67 |
| N#C[C@H]1C[C@@H](N2CCC2)CC[C@@H]1n1cc(C(N)=O)c(Nc2ccc(OC(F)F)nc2)n1 (single isomer, unassigned) [Example 28-3, 1-[(1S,2S,4S or 1R,2R,4R)-4-(azetidin-1-yl)-2-cyanocyclohexyl]-3-{[6-(difluoromethoxy)pyridin-3-yl]amino}-1H-pyrazole-4-carboxamide] | 5 | 87 |
| N#C[C@H]1C[C@@H](NCC(F)F)CC[C@@H]1n1cc(C(N)=O)c(Nc2ccc(S(=O)(=O)C(F)F)cc2)n1 (single isomer, unassigned) [Example 28-126, 1-{(1S,2S,4S or 1R,2R,4R )-2-cyano-4-[(2,2-difluoroethyl)amino]cyclohexyl}-3-({4-[(difluoro-methyl)sulfonyl]phenyl}amino)-1H-pyrazole-4-carboxamide] | 0.5 | 5 |
| N#C[C@H]1C[C@@H](NCC2(O)CC2)CC[C@@H]1n1cc(C(N)=O)c(Nc2ccc(Cl)cc2)n1 (single isomer, unassigned) [Example 28-220, 3-[(4-chlorophenyl)amino]-1-[(1S,2S,4S or 1R,2R,4R)-2-cyano-4-{[(1-hydroxycyclo-propyl)methyl]amino}cyclohexyl]-1H-pyrazole-4-carboxamide] | 2 | 30 |
| CC1(C)CN(C(=O)[C@H]2CC[C@H](n3cc(C(N)=O)c(Nc4ccc(Cl)cc4)n3)[C@@H](C#N)C2)C1 (single isomer, unassigned) [Example 35-1, 3-(4-chlorophenylamino)-1-((1S,2S,4S or 1R,2R,4R)-2-cyano-4-(3,3-dimethylazetidine-1-carbonyl)cyclohexyl)-1H-pyrazole-4-carboxamide] | 6 | 45 |
| CC1(C)CN(C(=O)[C@@H]2CC[C@@H](n3cc(C(N)=O)c(Nc4ccc(Cl)cc4)n3)[C@H](C#N)C2)C1 (single isomer, unassigned) [Example 35-2, 3-(4-chlorophenylamino)-1-((1R,2R,4R or 1S,2S,4S)-2-cyano-4-(3,3-dimethylazetidine-1-carbonyl)cyclohexyl)-1H-pyrazole-4-carboxamide] | 9 | 290 |
| N#C[C@@H]1CCC2(C[C@H]1n1cc(C(N)=O)c(Nc3ccccc3)n1)OCCO2 (single isomer, unassigned) [Example 45-1, 1-[(7R,8R or 7S,8S)-8-Cyano-1,4-dioxaspiro[4.5]dec-7-yl]-3-(phenylamino)-1H-pyrazole-4-carboxamide] | 44 | 235 |
| N#C[C@@H]1CCC2(C[C@@H]1n1cc(C(N)=O)c(Nc3ccccc3)n1)OCCO2 (single isomer, unassigned) [Example 45-2, 1-[(7S,8R or 7R,8S)-8-Cyano-1,4-dioxaspiro[4.5]dec-7-yl]-3-(phenylamino)-1H-pyrazole-4-carboxamide] | 0.85 | 4 |
| N#C[C@@H]1CCC2(C[C@H]1n1cc(C(N)=O)c(Nc3ccccc3)n1)OCCO2 (single isomer, unassigned) [Example 45-3, 1-[(7R,8R or 7S,8S)-8-Cyano-1,4-dioxaspiro[4.5]dec-7-yl]-3-(phenylamino)-1H-pyrazole-4-carboxamide] | 147 | 308 |
| N#C[C@@H]1CCC2(C[C@@H]1n1cc(C(N)=O)c(Nc3ccccc3)n1)OCCO2 (single isomer, unassigned) [Example 45-4, 1-[(7S,8R or 7R,8S)-8-Cyano-1,4-dioxaspiro[4.5]dec-7-yl]-3-(phenylamino)-1H-pyrazole-4-carboxamide] | 13 | 59 |
